Measured values as given in patent US7491733B2, “Bicyclic guanidine derivatives and therapeutic uses thereof” (Merck Patent GmbH, priority 2001, dated 2009).
Structures can show the parent of a compound that is named as a salt. Where two headings read alike, the source gives them in different places.

Tests used:
Nostz Rats = experiment: Oral antidiabetic activity in Nostz rats (non-insulin-dependent diabetes induced by neonatal steptozotocin); change in glycaemia; format: in vivo; details: Rattus norvegicus, blood sample two hours after the final administration, diabetic rats; for change in vivo at 20 mg/kg: 20 mg/kg/day; for change in vivo at 200 mg/kg: 200 mg/kg/day
Protocol: Study of the Antidiabetic Activity in Nostz Rats
The oral antidiabetic activity of the compounds of the formula (I) was determined on an experimental model of non-insulin-dependent diabetes, induced in the rats with steptozotocin.
The model of non-insulin-dependent diabetes is obtained in the rats by means of a neonatal injection (on the day of birth) of steptozotocin.
The diabetic rats used are eight weeks old. The animals are housed, from the day of birth to the day of the experiment, in an animal house at a regulated temperature of 21 to 22° C. and subjected to a fixed cycle of light (from 7 a.m. to 7 p.m.) and darkness (from 7 p.m. to 7 a.m.). Their food consisted of a maintenance diet, and water and food were given “ad libitum”, with the exception of fasting two hours before the tests, during which period the food is removed (post-absorptive state).
The rats are treated orally for one (D1) or four (D4) days with the test product. Two hours after the final administration of the product and 30 minutes after the animals have been anaesthetised with pentobarbital sodium (Nembutal®), a 300 μl blood sample is taken from the end of the tail.
By way of example, results obtained are collated in Table 2.

[1] = 24 h, one day of treatment (D1), read-out: percentage change in the glycaemia on D1 relative to D0
[2] = 96 h, four days of treatment (D4), read-out: percentage change in the glycaemia on D4 relative to D0

## N=C(N)NCC1Cc2ccccc2N1 (centres unmarked) (as salt: hemisulfate) [Compound 8]
other
  melting point: 189 to 191 °C

## CN(Cc1nc2ccccc2s1)C(=N)N (as salt: hydrochloride) [Compound 1, 2-(aminoiminomethyl(methylamino)methyl)-benzothiazole hydrochloride]
other
  melting point: 203 to 205 °C

## N=C(N)NCc1nc2ccccc2[nH]1 (as salt: hydrochloride) [Compound 2, 2-(aminoiminomethylamino)methylbenzimidazole hydrochloride]
other
  melting point: 171 to 173 °C

## N=C(N)NCc1nc2ccccc2s1 (as salt: hydrochloride) [Compound 5]
other
  melting point: 196 to 198 °C

## CN(Cc1nc2ccccc2[nH]1)C(=N)N (as salt: hydrochloride) [Compound 6]
other
  melting point: 253 to 255 °C

## Cn1c(CNC(=N)N)cc2cc(F)ccc21 (as salt: hydrochloride) [Compound 14]
other
  melting point: 181 to 183 °C

## CN(CC1=Cc2ccccc2C1)C(=N)N (as salt: hydrochloride) [Compound 16]
other
  melting point: 209 to 211 °C

## N=C(N)NCC1Cc2ccccc2C1 (as salt: sulfate) [Compound 3, 2-(aminoiminomethylamino)methylindane sulfate]
other
  melting point: 231 to 233 °C

## COc1cc2c(cc1OC)CC(CNC(=N)N)C2 (as salt: sulfate) [Compound 11]
other
  melting point: 191 to 193 °C

## COc1ccc2c(c1)cc(CNC(=N)N)n2C (as salt: sulfate) [Compound 12]
other
  melting point: 233 to 235 °C

## COc1ccc2[nH]c(CNC(=N)N)cc2c1 (as salt: sulfate) [Compound 13]
other
  melting point: 213 to 215 °C

## N=C(N)NCc1cc2ccccc2o1 (as salt: sulfate) [Compound 15]
other
  melting point: 244 to 247 °C

## N=C(N)NCC1Cc2cc(F)c(F)cc2C1 (as salt: sulfate) [Compound 17]
other
  melting point: > 250 °C

## CN(Cc1nc2ccccc2s1)C(=N)N [Compound 1, 2-(aminoiminomethyl(methylamino)methyl)-benzothiazole hydrochloride]
Nostz Rats; [1]
  change in vivo at 20 mg/kg: 5%
  change in vivo at 200 mg/kg: -9%
Nostz Rats; [2]
  change in vivo at 20 mg/kg: -4%
  change in vivo at 200 mg/kg: -23%

## N=C(N)NCc1nc2ccccc2[nH]1 [Compound 2, 2-(aminoiminomethylamino)methylbenzimidazole hydrochloride]
Nostz Rats; [1]
  change in vivo at 20 mg/kg: -17%
  change in vivo at 200 mg/kg: -10%
Nostz Rats; [2]
  change in vivo at 20 mg/kg: -13%
  change in vivo at 200 mg/kg: -25%

## N=C(N)NCC1Cc2ccccc2C1 [Compound 3, 2-(aminoiminomethylamino)methylindane sulfate]
Nostz Rats; [1]
  change in vivo at 20 mg/kg: 2%
  change in vivo at 200 mg/kg: -14%
Nostz Rats; [2]
  change in vivo at 20 mg/kg: -10%
  change in vivo at 200 mg/kg: -29%

## N=C(N)NCc1nc2ccccc2s1 [Compound 5]
Nostz Rats; [1]
  change in vivo at 20 mg/kg: -18%
  change in vivo at 200 mg/kg: -30%
Nostz Rats; [2]
  change in vivo at 20 mg/kg: -3%
  change in vivo at 200 mg/kg: -26%

## CN(Cc1nc2ccccc2[nH]1)C(=N)N [Compound 6]
Nostz Rats; [1]
  change in vivo at 20 mg/kg: 3%
  change in vivo at 200 mg/kg: -6%
Nostz Rats; [2]
  change in vivo at 20 mg/kg: 0%
  change in vivo at 200 mg/kg: -16%

## N=C(N)NCc1cc2ccccc2[nH]1 [Compound 7]
Nostz Rats; [1]
  change in vivo at 20 mg/kg: -5%
  change in vivo at 200 mg/kg: -19%
Nostz Rats; [2]
  change in vivo at 20 mg/kg: -9%
  change in vivo at 200 mg/kg: -28%

## N=C(N)NCC1Cc2ccccc2N1 (centres unmarked) [Compound 8]
Nostz Rats; [1]
  change in vivo at 20 mg/kg: -7%
  change in vivo at 200 mg/kg: -10%
Nostz Rats; [2]
  change in vivo at 20 mg/kg: -12%
  change in vivo at 200 mg/kg: -9%

## N=C(N)NCC1Cc2ccccc2O1 (centres unmarked) [Compound 9]
other
  melting point: 139 to 141 °C

## N=C(N)NCC1Cc2ccccc2S1 (centres unmarked) [Compound 10]
Nostz Rats; [1]
  change in vivo at 20 mg/kg: -3%
  change in vivo at 200 mg/kg: -21%
Nostz Rats; [2]
  change in vivo at 20 mg/kg: -5%
  change in vivo at 200 mg/kg: -25%
other
  melting point: 187 to 189 °C

## COc1cc2c(cc1OC)CC(CNC(=N)N)C2 [Compound 11]
Nostz Rats; [1]
  change in vivo at 20 mg/kg: -1%
  change in vivo at 200 mg/kg: -8%
Nostz Rats; [2]
  change in vivo at 20 mg/kg: -8%
  change in vivo at 200 mg/kg: -14%

## COc1ccc2c(c1)cc(CNC(=N)N)n2C [Compound 12]
Nostz Rats; [1]
  change in vivo at 200 mg/kg: -22%
Nostz Rats; [2]
  change in vivo at 200 mg/kg: -26%

## COc1ccc2[nH]c(CNC(=N)N)cc2c1 [Compound 13]
Nostz Rats; [1]
  change in vivo at 200 mg/kg: -16%
Nostz Rats; [2]
  change in vivo at 200 mg/kg: -26%

## N=C(N)NCc1cc2ccccc2o1 [Compound 15]
Nostz Rats; [1]
  change in vivo at 20 mg/kg: -23%
  change in vivo at 200 mg/kg: -29%
Nostz Rats; [2]
  change in vivo at 20 mg/kg: -28%
  change in vivo at 200 mg/kg: -31%
